Test results from ChEMBL document CHEMBL1201862, “PubChem BioAssay data set” (2004).
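Five concentrations, 48 hours, 96-well plates. Here, GI50 denotes the concentration required for 50% inhibition of growth.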 Calls of active or inactive are those of the source. No stated cut-off is given here; in the data, active = GI50 up to about 1.1 µM and inactive = higher.

Legend:
Experiment in all cases: DTP human tumour cell line panel, 48 h
LXFL 529 = system: LXFL 529
IGROV-1 = system: IGROV-1
HOP-92 = system: HOP-92
EKVX = system: EKVX
UACC-62 = system: UACC-62
HL-60 = system: HL-60
SK-MEL-2 = system: SK-MEL-2
HT-29 = system: HT-29
SR = system: SR
Malme-3M = system: Malme-3M
KM-20L2 = system: KM-20L2
OVCAR-3 = system: OVCAR-3
SNB-78 = system: SNB-78
DMS-114 = system: DMS-114
OVCAR-5 = system: OVCAR-5
TK-10 = system: TK-10
LOX IMVI = system: LOX IMVI
NCI-H522 = system: NCI-H522
NCI-H460 = system: NCI-H460
SF-268 = system: SF-268
K562 = system: K562
A498 = system: A498
M19-MEL = system: M19-MEL
A549 = system: A549
XF498 = system: XF498
DLD-1 = system: DLD-1
SN12C = system: SN12C
U-251 = system: U-251
SNB-19 = system: SNB-19
HCT-116 = system: HCT-116
CAKI-1 = system: CAKI-1
786-0 = system: 786-0
OVCAR-8 = system: OVCAR-8
OVCAR-4 = system: OVCAR-4
UO-31 = system: UO-31
DMS-273 = system: DMS-273
NCI-H23 = system: NCI-H23
SNB-75 = system: SNB-75
CCRF-CEM = system: CCRF-CEM
SF-295 = system: SF-295
HCT-15 = system: HCT-15
SK-MEL-28 = system: SK-MEL-28
RXF 393 = system: RXF 393
UACC-257 = system: UACC-257
SW-620 = system: SW-620
HCC 2998 = system: HCC 2998
RPMI-8226 = system: RPMI-8226
SF-539 = system: SF-539
MOLT-4 = system: MOLT-4
NCI-H226 = system: NCI-H226
M14 = system: M14
ACHN = system: ACHN
SK-MEL-5 = system: SK-MEL-5

Cc1ccc(NC(=O)CC2C(=O)Nc3ccccc3[S+]2[O-])cc1C (stereo not drawn)
GI50 (LXFL 529): 88.3 µM (inactive) | GI50 (IGROV-1): > 100 µM (inactive) | GI50 (HOP-92): 26 µM (inactive) | GI50 (EKVX): > 100 µM (inactive) | GI50 (UACC-62): > 100 µM (inactive) | GI50 (HL-60): 41.7 µM (inactive) | GI50 (SK-MEL-2): > 100 µM (inactive) | GI50 (HT-29): > 100 µM (inactive) | GI50 (SR): 63.5 µM (inactive) | GI50 (Malme-3M): > 100 µM (inactive) | GI50 (KM-20L2): > 100 µM (inactive) | GI50 (OVCAR-3): 40.6 µM (inactive) | GI50 (SNB-78): > 100 µM (inactive) | GI50 (DMS-114): 48.1 µM (inactive) | GI50 (OVCAR-5): > 100 µM (inactive) | GI50 (TK-10): > 100 µM (inactive) | GI50 (LOX IMVI): 48.6 µM (inactive) | GI50 (NCI-H522): 32.1 µM (inactive) | GI50 (NCI-H460): > 100 µM (inactive) | GI50 (SF-268): 75.2 µM (inactive) | GI50 (K562): 91.8 µM (inactive) | GI50 (A498): > 100 µM (inactive) | GI50 (M19-MEL): > 100 µM (inactive) | GI50 (A549): > 100 µM (inactive) | GI50 (XF498): > 100 µM (inactive) | GI50 (DLD-1): > 100 µM (inactive) | GI50 (SN12C): > 100 µM (inactive) | GI50 (U-251): 44.3 µM (inactive) | GI50 (SNB-19): 46 µM (inactive) | GI50 (HCT-116): 49.2 µM (inactive) | GI50 (CAKI-1): > 100 µM (inactive) | GI50 (786-0): 24.8 µM (inactive) | GI50 (OVCAR-8): 34 µM (inactive) | GI50 (OVCAR-4): 16.4 µM (inactive) | GI50 (UO-31): 42.1 µM (inactive) | GI50 (DMS-273): 28.1 µM (inactive) | GI50 (NCI-H23): 63.5 µM (inactive) | GI50 (SNB-75): > 100 µM (inactive) | GI50 (CCRF-CEM): > 100 µM (inactive) | GI50 (SF-295): > 100 µM (inactive) | GI50 (HCT-15): > 100 µM | GI50 (SK-MEL-28): > 100 µM (inactive) | GI50 (RXF 393): 22 µM (inactive) | GI50 (UACC-257): > 100 µM (inactive) | GI50 (SW-620): 66.4 µM (inactive) | GI50 (HCC 2998): > 100 µM (inactive) | GI50 (RPMI-8226): 29 µM (inactive) | GI50 (SF-539): 23.7 µM (inactive) | GI50 (MOLT-4): 25.5 µM (inactive) | GI50 (NCI-H226): > 100 µM (inactive) | GI50 (M14): > 100 µM (inactive) | GI50 (ACHN): 73.8 µM (inactive) | GI50 (SK-MEL-5): 73.8 µM (inactive)
